Data reported in paper PMC6639251, “Selective Kinase Inhibition Shows That Bur1 (Cdk9) Phosphorylates the Rpb1 Linker In Vivo” (Molecular and Cellular Biology, 2019).

Key:
[1] = target: T1, Kin28/Cdk7 (Kin28-IS) (Saccharomyces cerevisiae, UniProt P06242, V21C/L83G); assay: immunoblot of Rpb1 CTD phosphorylation in yeast cells and in nuclear-extract elongation complexes; assay type: cell-based; settings: covalent; engineered hole and cysteine in ATP pocket; 20 uM in cells 15 min 30 C; 250 nM in nuclear extract
T1 construct: allele integrated at the natural chromosomal locus; in living yeast and nuclear extract, part of TFIIH; HA-tagged plasmid form (35 kDa) only for expression test
T1 sequence (P06242 1-306 V21C/L83G): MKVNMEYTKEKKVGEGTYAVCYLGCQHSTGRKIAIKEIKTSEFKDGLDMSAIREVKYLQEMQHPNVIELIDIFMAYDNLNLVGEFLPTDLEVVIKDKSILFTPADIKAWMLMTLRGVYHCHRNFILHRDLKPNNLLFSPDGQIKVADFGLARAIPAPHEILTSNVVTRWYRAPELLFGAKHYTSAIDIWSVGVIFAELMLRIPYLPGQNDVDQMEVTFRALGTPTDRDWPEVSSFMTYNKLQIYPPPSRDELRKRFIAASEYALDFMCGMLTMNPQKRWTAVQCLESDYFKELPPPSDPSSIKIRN

[2] = target: T2, Ctk1/Cdk12 (Ctk1-IS) (Saccharomyces cerevisiae, UniProt Q03957, V197C/F260G); assay: immunoblot of Rpb1 CTD Ser2P in yeast cells and in nuclear-extract elongation complexes; assay type: cell-based; settings: covalent; engineered hole and cysteine in ATP pocket; 20 uM in cells 15 min 30 C; 250 nM in nuclear extract
T2 construct: allele integrated at the natural chromosomal locus; in living yeast and nuclear extract; HA3-tagged plasmid form (61 kDa) only for expression test
T2 sequence (Q03957 1-528 V197C/F260G): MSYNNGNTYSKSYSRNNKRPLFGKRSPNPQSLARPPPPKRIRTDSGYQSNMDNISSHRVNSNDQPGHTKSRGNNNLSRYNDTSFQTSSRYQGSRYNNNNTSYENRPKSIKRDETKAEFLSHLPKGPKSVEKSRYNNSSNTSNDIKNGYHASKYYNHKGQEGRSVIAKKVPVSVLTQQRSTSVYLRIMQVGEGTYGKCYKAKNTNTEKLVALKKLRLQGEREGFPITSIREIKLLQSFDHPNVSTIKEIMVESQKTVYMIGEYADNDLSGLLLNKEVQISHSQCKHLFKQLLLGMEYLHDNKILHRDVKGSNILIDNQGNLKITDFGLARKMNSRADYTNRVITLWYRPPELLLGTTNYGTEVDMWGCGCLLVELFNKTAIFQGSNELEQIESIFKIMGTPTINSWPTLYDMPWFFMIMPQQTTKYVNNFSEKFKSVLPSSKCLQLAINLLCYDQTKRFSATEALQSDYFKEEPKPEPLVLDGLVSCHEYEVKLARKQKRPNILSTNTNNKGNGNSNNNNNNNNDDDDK

Cc1ccc(-c2c(C(=O)CCl)n(CCCO)c3ncnc(N)c23)cc1 [CMK]
immunoblot of Rpb1 CTD phosphorylation in yeast cells and in nuclear-extract elo [1]: treatment of the Kin28-IS strain with CMK led to a significant drop in CTD Ser5P | immunoblot of Rpb1 CTD Ser2P in yeast cells and in nuclear-extract elongation co [2]: 15-min CMK treatment of Ctk1-IS cells caused very strong loss of Ser2P
